Source: BindingDB's records for doi:10.1021/jm9703911 (Allergan, 1997)

Columns and labels:
[1] = target: T1, Retinoic acid receptor alpha (Homo sapiens, UniProt P10276); experiment: Inhibition of [3H]ATRA binding to baculovirus expressed RAR alpha receptor
T1 sequence (P10276 whole entry): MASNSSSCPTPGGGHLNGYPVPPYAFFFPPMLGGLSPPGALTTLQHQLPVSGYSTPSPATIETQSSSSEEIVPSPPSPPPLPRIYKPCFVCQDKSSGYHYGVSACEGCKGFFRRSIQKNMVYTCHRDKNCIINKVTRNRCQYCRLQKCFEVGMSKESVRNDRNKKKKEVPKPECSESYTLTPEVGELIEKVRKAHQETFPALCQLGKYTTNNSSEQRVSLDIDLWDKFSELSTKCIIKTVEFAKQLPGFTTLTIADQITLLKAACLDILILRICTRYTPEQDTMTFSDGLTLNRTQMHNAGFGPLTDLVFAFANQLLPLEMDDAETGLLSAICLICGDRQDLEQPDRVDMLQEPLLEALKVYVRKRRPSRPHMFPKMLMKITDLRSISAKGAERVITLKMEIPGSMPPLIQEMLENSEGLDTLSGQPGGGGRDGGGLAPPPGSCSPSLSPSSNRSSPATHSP

[2] = target: T2, Retinoic acid receptor beta (Homo sapiens, UniProt P10826); experiment: Inhibition of [3H]-ATRA binding to baculovirus expressed RAR beta receptor
T2 sequence (P10826 whole entry): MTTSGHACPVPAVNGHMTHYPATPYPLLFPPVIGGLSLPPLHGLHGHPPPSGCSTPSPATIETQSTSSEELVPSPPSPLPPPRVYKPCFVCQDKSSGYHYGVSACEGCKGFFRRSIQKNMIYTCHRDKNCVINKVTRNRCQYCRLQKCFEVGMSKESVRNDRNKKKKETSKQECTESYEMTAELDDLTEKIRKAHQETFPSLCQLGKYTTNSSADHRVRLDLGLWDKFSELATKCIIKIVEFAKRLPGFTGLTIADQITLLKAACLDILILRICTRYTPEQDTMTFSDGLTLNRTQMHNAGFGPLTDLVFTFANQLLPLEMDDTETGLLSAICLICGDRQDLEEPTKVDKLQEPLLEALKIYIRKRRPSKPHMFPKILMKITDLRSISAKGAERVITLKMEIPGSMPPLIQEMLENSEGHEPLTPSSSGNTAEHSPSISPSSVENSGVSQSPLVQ

[3] = target: T3, Retinoic acid receptor gamma (Homo sapiens, UniProt P13631); experiment: Inhibition of [3H]ATRA binding to baculovirus expressed RAR gamma receptor
T3 sequence (P13631 whole entry): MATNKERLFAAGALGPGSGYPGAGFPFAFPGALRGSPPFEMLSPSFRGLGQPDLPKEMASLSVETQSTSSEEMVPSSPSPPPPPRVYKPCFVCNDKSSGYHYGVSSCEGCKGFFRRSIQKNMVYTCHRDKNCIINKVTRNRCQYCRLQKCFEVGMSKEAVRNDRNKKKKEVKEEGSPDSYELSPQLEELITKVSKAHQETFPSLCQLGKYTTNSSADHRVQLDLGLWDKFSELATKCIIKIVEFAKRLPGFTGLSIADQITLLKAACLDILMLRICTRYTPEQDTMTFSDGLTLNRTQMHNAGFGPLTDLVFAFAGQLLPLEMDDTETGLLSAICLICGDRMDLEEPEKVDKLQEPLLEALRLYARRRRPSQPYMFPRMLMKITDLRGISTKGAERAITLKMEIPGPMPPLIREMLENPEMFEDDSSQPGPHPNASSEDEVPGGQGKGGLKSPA

Q: How did the Kd [1] turn out when `Cc1ccc(C2=CC(C)(C)Oc3c(Br)cc(C(=O)Nc4cc(F)c(C(=O)O)c(F)c4)cc32)cc1` was run?
A: 0.0015 µM

Q: And the Kd [2]?
A: 0.898 µM

Q: And the Kd [3]?
A: 10.6 µM

Q: Which Kd [1] does the source give for `Cc1ccc(C2=CCC(C)(C)c3ccc(C(=O)Nc4ccc(C(=O)O)cc4)cc32)cc1` here?
A: 0.027 µM

Q: What about the Kd [2] of the same compound?
A: 1.02 µM

Q: And the Kd [3]?
A: 3.12 µM

Q: What does the source list for `Cc1ccc(C2=CCC(C)(C)c3ccc(C(=O)Nc4cc(F)c(C(=O)O)c(F)c4)cc32)cc1`?
A: Kd [1]: 0.032 µM; Kd [2]: 2.26 µM; Kd [3]: > 30 µM

Q: How did the Kd [1] turn out when `Cc1ccc(C2=CCC(C)(C)c3ccc(C(=O)Nc4ccc(C(=O)O)c(F)c4)cc32)cc1` was run?
A: 0.0057 µM

Q: And the Kd [2]?
A: 0.622 µM

Q: What about the Kd [3] of the same compound?
A: 0.863 µM

Q: How did the Kd [1] turn out when `Cc1ccc(C2=CC(C)(C)Oc3c(Br)cc(C(=O)Nc4ccc(C(=O)O)c(F)c4)cc32)cc1` was run?
A: 0.0028 µM

Q: And the Kd [2]?
A: 0.32 µM

Q: What about the Kd [3] of the same compound?
A: 7.26 µM
